Experimental data from patent US9321764B2, “Dihydro-pyrrolopyridinone inhibitors” (AbbVie Inc., priority 2013, dated 2016).

Experiments:
BRD4 (BDII_E352-M457) = target: T1, BRD4 (BDII_E352-M457) (Homo sapiens, UniProt O60885); experiment: TR-FRET bromodomain binding assay, second bromodomain of BRD4; conditions: His-tagged BD2, 30 nM Alexa647 probe; TR-FRET protocol A-E given per row
T1 construct: proliferation; Protocol; made in house
How it was run: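 His-tagged BRD4 BD2 ([…]) competed against an Alexa647-labelled BET-inhibitor probe in TR-FRET. Buffer was 20 mM sodium phosphate pH 6.0, 50 mM NaCl, 1 mM EDTA, 0.01% Triton X-100, 1 mM DTT, with method D DMSO series of 2.5 mM–800 nM (stock range). IC50 from 4-parameter fit, Ki from probe Kd and concentration.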

[1] = tested on: breast cancer cell line MX-1; experiment: MX-1 cell line proliferation assay; assay type: cell-based; conditions: Homo sapiens, MX1, 72 h, MX-1 cells, 3-day proliferation assay, Cell Titer Glo; read-out: Cellular proliferation EC50
How it was run: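 Final compound concentrations spanned 0.0001 to 3 μM, added to 5000 cells/well plated the previous night in RPMI 1640 plus 10% FBS at 37 °C.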

BRD4 (BDI_K57-E168) = target: T2, BRD4 (BDI_K57-E168) (Homo sapiens, UniProt O60885); experiment: TR-FRET bromodomain binding assay, first bromodomain of BRD4; conditions: His-tagged BD1, 100 nM Alexa647 probe; TR-FRET protocol A-E given per row
T2 construct: BD1: amino acids K57-E168; made in house
How it was run: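 Ki values come from IC50s (4-parameter logistic) corrected for probe Kd and concentration, normalised to no-compound and 1 μM unlabelled probe controls. Probe displacement by TR-FRET used 8 nM BD1 (K57-E168), 100 nM Alexa647 probe, 1 nM Eu-anti-His, 20 mM phosphate pH 6.0, 2% DMSO, 1 h, room temperature.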

Structure (SMILES) | Ki (BRD4 (BDII_E352-M457)) | EC50 [1] | Ki (BRD4 (BDI_K57-E168))
CCS(=O)(=O)NCc1ccc(Oc2ccc(F)cc2F)c(-c2cn(C)c3c(=O)[nH]ccc23)c1 [Example 106, N-[4-(2,4-difluorophenoxy)-3-(1-methyl-7-oxo-6,7-dihydro-1H-pyrrolo[2,3-c]pyridin-3-yl)benzyl]ethanesulfonamide] | 67 nM | 338 nM | 31 nM
Cn1cc(-c2cc(CS(C)(=O)=O)ccc2NCC2CC2)c2cc[nH]c(=O)c21 [Example 110, 3-{2-[(cyclopropylmethyl)amino]-5-[(methylsulfonyl)methyl]phenyl}-1-methyl-1,6-dihydro-7H-pyrrolo[2,3-c]pyridin-7-one] | 215 nM | 136 nM | 61 nM
CN(C)C1CCN(Cc2ccc(Oc3ccc(F)cc3F)c(-c3cn(C)c4c(=O)[nH]ccc34)c2)CC1 [Example 113, 3-[2-(2,4-difluorophenoxy)-5-{[4-(dimethylamino)piperidin-1-yl]methyl}phenyl]-1-methyl-1,6-dihydro-7H-pyrrolo[2,3-c]pyridin-7-one] | 506 nM | 1630 nM | 583 nM
Cn1cc(-c2cc(CNCCC(C)(C)C)ccc2Oc2ccc(F)cc2F)c2cc[nH]c(=O)c21 [Example 114, 3-[2-(2,4-difluorophenoxy)-5-{[(3,3-dimethylbutyl)amino]methyl}phenyl]-1-methyl-1,6-dihydro-7H-pyrrolo[2,3-c]pyridin-7-one] | 1200 nM | > 3000 nM | 1410 nM
COC1CCN(Cc2ccc(Oc3ccc(F)cc3F)c(-c3cn(C)c4c(=O)[nH]ccc34)c2)CC1 [Example 115, 3-{2-(2,4-difluorophenoxy)-5-[(4-methoxypiperidin-1-yl)methyl]phenyl}-1-methyl-1,6-dihydro-7H-pyrrolo[2,3-c]pyridin-7-one] | 1330 nM | 1420 nM | 1350 nM
CN1CCN(Cc2ccc(Oc3ccc(F)cc3F)c(-c3cn(C)c4c(=O)[nH]ccc34)c2)CC1 [Example 116, 3-{2-(2,4-difluorophenoxy)-5-[(4-methylpiperazin-1-yl)methyl]phenyl}-1-methyl-1,6-dihydro-7H-pyrrolo[2,3-c]pyridin-7-one] | 145 nM | 578 nM | 93 nM
Cn1cc(-c2cc(CNCc3c[nH]cn3)ccc2Oc2ccc(F)cc2F)c2cc[nH]c(=O)c21 [Example 119, 3-[2-(2,4-difluorophenoxy)-5-{[(1H-imidazol-4-ylmethyl)amino]methyl}phenyl]-1-methyl-1,6-dihydro-7H-pyrrolo[2,3-c]pyridin-7-one] | 478 nM | > 3000 nM | 599 nM
Cn1cc(-c2cc(CCl)ccc2Oc2ccc(F)cc2F)c2cc[nH]c(=O)c21 [Example 120, 3-[5-(chloromethyl)-2-(2,4-difluorophenoxy)phenyl]-1-methyl-1,6-dihydro-7H-pyrrolo[2,3-c]pyridin-7-one] | 208 nM | 306 nM | 77 nM
Cn1cc(-c2cc(CS(C)(=O)=O)ccc2Nc2ccc(F)cc2)c2cc[nH]c(=O)c21 [Example 121, 3-{2-[(4-fluorophenyl)amino]-5-[(methylsulfonyl)methyl]phenyl}-1-methyl-1,6-dihydro-7H-pyrrolo[2,3-c]pyridin-7-one] | 79 nM | 40 nM | 12 nM
Cn1cc(-c2cc(CS(C)(=O)=O)ccc2Nc2ccc(F)cc2F)c2cc[nH]c(=O)c21 [Example 122, 3-{2-[(2,4-difluorophenyl)amino]-5-[(methylsulfonyl)methyl]phenyl}-1-methyl-1,6-dihydro-7H-pyrrolo[2,3-c]pyridin-7-one] | 55 nM | 44 nM | 25 nM
CCS(=O)(=O)c1ccc(Oc2ccc(F)cc2F)c(-c2cn(C)c3c(=O)[nH]c(/C=C(\Cl)CCO)cc23)c1 [Example 126, 5-[(1Z)-2-chloro-4-hydroxybut-1-en-1-yl]-3-[2-(2,4-difluorophenoxy)-5-(ethylsulfonyl)phenyl]-1-methyl-1,6-dihydro-7H-pyrrolo[2,3-c]pyridin-7-one] | 5.7 nM | 81.9 nM | 8.3 nM
Cn1cc(-c2cc(CNS(=O)(=O)Cc3ccc(Cl)cc3)ccc2Oc2ccc(F)cc2F)c2cc[nH]c(=O)c21 [Example 131, 1-(4-chlorophenyl)-N-[4-(2,4-difluorophenoxy)-3-(1-methyl-7-oxo-6,7-dihydro-1H-pyrrolo[2,3-c]pyridin-3-yl)benzyl]methanesulfonamide] | 1250 nM | 1400 nM | 281 nM
Cc1ccc(CS(=O)(=O)NCc2ccc(Oc3ccc(F)cc3F)c(-c3cn(C)c4c(=O)[nH]ccc34)c2)cc1 [Example 132, N-[4-(2,4-difluorophenoxy)-3-(1-methyl-7-oxo-6,7-dihydro-1H-pyrrolo[2,3-c]pyridin-3-yl)benzyl]-1-(4-methylphenyl)methanesulfonamide] | 1240 nM | 658 nM | 249 nM

The remaining molecules from weak to strong by Ki (BRD4 (BDII_E352-M457)), led by results:

Ki (BRD4 (BDII_E352-M457)) | EC50 [1] | Ki (BRD4 (BDI_K57-E168)) | Structure (SMILES)
2680 nM | 1680 nM | 49 nM | Cn1cc(-c2cc(CNS(=O)(=O)Cc3ccc(C(F)(F)F)cc3)ccc2Oc2ccc(F)cc2F)c2cc[nH]c(=O)c21 [Example 133, N-[4-(2,4-difluorophenoxy)-3-(1-methyl-7-oxo-6,7-dihydro-1H-pyrrolo[2,3-c]pyridin-3-yl)benzyl]-1-[4-(trifluoromethyl)phenyl]methanesulfonamide]
1150 nM | > 3000 nM | 247 nM | COc1ccccc1S(=O)(=O)NCc1ccc(Oc2ccc(F)cc2F)c(-c2cn(C)c3c(=O)[nH]ccc23)c1 [Example 130, N-[4-(2,4-difluorophenoxy)-3-(1-methyl-7-oxo-6,7-dihydro-1H-pyrrolo[2,3-c]pyridin-3-yl)benzyl]-2-methoxybenzenesulfonamide]
654 nM | > 3000 nM | 1490 nM | Cn1cc(-c2cc(CNCCC3CCCC3)ccc2Oc2ccc(F)cc2F)c2cc[nH]c(=O)c21 [Example 128, 3-[5-{[(2-cyclopentylethyl)amino]methyl}-2-(2,4-difluorophenoxy)phenyl]-1-methyl-1,6-dihydro-7H-pyrrolo[2,3-c]pyridin-7-one]
518 nM | 456 nM | 103 nM | Cn1cc(-c2cc(CNS(=O)(=O)Cc3ccc(C#N)cc3)ccc2Oc2ccc(F)cc2F)c2cc[nH]c(=O)c21 [Example 134, 1-(4-cyanophenyl)-N-[4-(2,4-difluorophenoxy)-3-(1-methyl-7-oxo-6,7-dihydro-1H-pyrrolo[2,3-c]pyridin-3-yl)benzyl]methanesulfonamide]
476 nM | 947 nM | 619 nM | Cn1cc(-c2cc(CNCc3ccoc3)ccc2Oc2ccc(F)cc2F)c2cc[nH]c(=O)c21 [Example 127, 3-[2-(2,4-difluorophenoxy)-5-{[(furan-3-ylmethyl)amino]methyl}phenyl]-1-methyl-1,6-dihydro-7H-pyrrolo[2,3-c]pyridin-7-one]
382 nM | 1510 nM | 776 nM | Cn1cc(-c2cc(CNCC3CC3)ccc2Oc2ccc(F)cc2F)c2cc[nH]c(=O)c21 [Example 118, 3-[5-{[(cyclopropylmethyl)amino]methyl}-2-(2,4-difluorophenoxy)phenyl]-1-methyl-1,6-dihydro-7H-pyrrolo[2,3-c]pyridin-7-one]
337 nM | 713 nM | 908 nM | Cn1cc(-c2cc(CN3CCC(N)CC3)ccc2Oc2ccc(F)cc2F)c2cc[nH]c(=O)c21 [Example 111, 3-{5-[(4-aminopiperidin-1-yl)methyl]-2-(2,4-difluorophenoxy)phenyl}-1-methyl-1,6-dihydro-7H-pyrrolo[2,3-c]pyridin-7-one]
181 nM | 460 nM | 93 nM | Cn1cc(-c2cc(S(C)(=O)=O)ccc2Oc2ccc(F)cc2F)c2c(Cl)c[nH]c(=O)c21 [Example 108, 4-chloro-3-[2-(2,4-difluorophenoxy)-5-(methylsulfonyl)phenyl]-1-methyl-1,6-dihydro-7H-pyrrolo[2,3-c]pyridin-7-one]
109 nM | 388 nM | 27 nM | Cn1cc(-c2cc(CNS(=O)(=O)CC(F)(F)F)ccc2Oc2ccc(F)cc2F)c2cc[nH]c(=O)c21 [Example 135, N-[4-(2,4-difluorophenoxy)-3-(1-methyl-7-oxo-6,7-dihydro-1H-pyrrolo[2,3-c]pyridin-3-yl)benzyl]-2,2,2-trifluoroethanesulfonamide]
92 nM | 267 nM | 69 nM | Cn1cc(-c2cc(S(=O)(=O)N3CC(F)(F)C3)ccc2OCC2CC2)c2cc[nH]c(=O)c21 [Example 125, 3-{2-(cyclopropylmethoxy)-5-[(3,3-difluoroazetidin-1-yl)sulfonyl]phenyl}-1-methyl-1,6-dihydro-7H-pyrrolo[2,3-c]pyridin-7-one]
67 nM | 268 nM | 57 nM | Cn1cc(-c2cc(S(C)(=O)=O)ccc2OCCC2CC2)c2c(Cl)c[nH]c(=O)c21 [Example 109, 4-chloro-3-[2-(2-cyclopropylethoxy)-5-(methylsulfonyl)phenyl]-1-methyl-1,6-dihydro-7H-pyrrolo[2,3-c]pyridin-7-one]
